From patent US20070213278A1, “Arrays with cleavable linkers” (priority 2004, published 2007)
Marks after values point to notes of the source that are not given here.

How the values were obtained:
chST6GalNAc-I = molecular target: T1, chST6GalNAc-I (Gallus gallus, UniProt Q92183); test: chST6GalNAc-I activity on small acceptor molecules; assay type: biochemical, chicken; details: α-D-galacto derivatives as acceptors
T1 construct: made in house; host or cells: insect cells
Source text: The inventors have previously reported the cloning, expression, and characterization of chicken ST6GalNAc-I and its use in preparative synthesis of the O-linked sialoside antigens, STn-, α(2-6)SiaT-, α(2-3)SiaT- and Di-SiaT-antigen. Blixt, O.; Allin, K.; Pereira, L.; Datta, A. and Paulson, J. C., J. Am. Chem. Soc. 2002, 124, 5739-5746. Briefly, the recombinant enzyme was expressed in insect cells and purified by CDP-sepharose affinity chromatography to generate approximately 10 U/L of cell culture.

2G12 anti-HIV antibody = test: 2G12 binding to glycan array printed on glass slide; set-up: species or system human; details: for Rel. spec. (relative binding activity of 2G12): glycan array on glass slide, 2G12 pre-complexed with anti-IgG-FITC; for 2G12 binding on glycan array: initial experiments
Source text: The natural high mannose type N-glycans used for the analysis were purified from pronase treated bovine ribonuclease B on Dionex. Each preparation was a single molecular weight species as determined by MALDI-MS.
Construction of a glycan array printed on a glass slide: The library of carbohydrate structures was obtained through chemical and chemo-enzymatic synthesis as described above, as well as natural sources. This compound library contained a N-hydroxy succinimide (NHS)-reactive primary amino group, which was printed on a commercial NHS-activated glass surface (Accelr8 Technology Corporation, Denver, Colo.) using a microarray gene printer (TSRI).
Each glycan type was printed (≈0.5 nL/spot) at various concentrations (10-100 μM) and each concentration in a replicate of six. Slides were further incubated with ethanolamine buffer to deactivate remaining NHS functional groups.
The 2G12 antibody was pre-complexed (for 10 min) with secondary human anti-IgG-FITC (2:1, 20 μg/mL) prior to application to the glycan array. After incubation with the 2G12 antibodies, the array washed by dipping the slide in buffer and water.

2G12 antibody [1] = test: Carbohydrate microarray analysis, microtiter plate, oligomannose-2G12 dissociation constants (Example 11); assay type: binding, human; details: microtiter plate array
Protocol: Carbohydrate microarray analysis. Ninety-six well NHS-coated microtiter plates (NoAb Biodiscoveries) were treated with 200 μL of a 1 mM methanolic solution of the amino-functionalized disulfide and alkyne containing linker (scheme V) containing 5% diisopropylethylamine (DIEA) and incubated overnight at 4° C. The microtiter plate was then washed with 2×200 μL methanol and 2×200 μL water. Next, 200 μL solutions of azido-functionalized oligomannose derivatives 21-25 at varying concentrations from 0 to 500 μM in 5% DIEA/methanol were introduced. A sprinkle of copper (I) iodide was added and the contents were allowed to react overnight at 4° C. The next day, the contents were removed and the plates were washed with 2×200 μL methanol and 2×200 μL water. The plates were then blocked with 0.1% Tween20 solution in HEPES buffer pH 7.5 at 4° C. for 1 hour and then washed with 3×200 μL HEPES buffer. […] Detection of the FITC-tagged secondary antibody was performed in 200 μL water using a fluorescence plate reader. […]
Carbohydrate Microarray Analysis. […] Kd values for the interaction of 2G12 with oligomannoses 4, 5, 7, 8, 9 (Table 9) were determined using a microtiter-based assay with detection via a fluorescent secondary antibody (see Bryan et al.(2004) J. Am. Chem. Soc. 126, 8640-41).

2G12 antibody [2] = test: 2G12 binding, cleavable linker glycan array in microtiter plates (Example 10); set-up: species or system human; details: for 2G12 epitope / affinity: cleavable linker array
Protocol: Cleavable Linker Glycan Array in Microtiter Plates: Further experiments were performed using glycans immobilized within microtiter wells with the cleavable triazole linkers described in Example 7 as shown in FIG. 11.
2G12 Binding: After washing with QH2O, wells were blocked with 10 mM HEPES buffer, pH 7.5/150 mM NaCl buffer (200 μL) containing 0.1% Tween-20 over 1 h at 4° C. The buffer was then removed and 2G12 (17 μg/mL PBS buffer; 200 μL) was incubated in the well over 1 h at 4° C. Wells were then washed with PBS buffer (3×; 200 μL) and fluorescein-conjugated Goat Anti-Human IgG antibody (14 μg/mL PBS buffer; 200 μL) was incubated in the well over 1 h in the dark at 4° C. Wells were then washed with PBS buffer (3×; 200 μL) and fluorescence was measured with an excitation wavelength of 485 nm and emission wavelength of 535 nm.
Further studies were performed using a cleavable linker array to clarify the types of mannose-containing glycans bound by the 2G12 anti-HIV antibodies. […] The results of a binding study using increasing amounts of labeled Manα1,2Manα1,3Manα1,2 Manα1,6Man glycan with a constant amount of 2G12 antibody are shown in FIG. 16.

[3] = system: 2G12 binding to gp120JR-CSF; test: Solution phase ELISA, oligomannose inhibition of 2G12 binding to gp120; set-up: species or system human; details: oligomannose at 0.5 mM
Protocol: Enzyme-linked immunosorbent assay. Microtiter plate wells (flat bottom, Costar type 3690; Corning Inc.) were coated with 50 ng/well gp120JR-CSF overnight at 4° C. All subsequent steps were performed at room temperature. The wells were then washed four times with PBS/0.05% (vol/vol) Tween20 (Sigma) using a microplate washer (SkanWash 400, Molecular Devices) prior to blocking for 1 hr with 3% (mass/vol) BSA. IgG 2G12, diluted to 0.5 μg/mL (25 ng/well) with 1% (mass/vol) BSA/0.02% (vol/vol) Tween20/PBS (PBS-BT), was then added for 2 hrs to the antigen-coated wells in the presence of serially-diluted oligomannoses starting at 2 mM.
Unbound antibody was removed by washing four times, as described above. Bound 2G12 was detected with an alkaline phosphatase-conjugated goat anti-human IgG F(ab′)2 antibody (Pierce) diluted 1:1000 in PBS-BT. After 1 hr, the wells were washed four times and bound antibody was visualized with p-nitrophenol phosphate substrate (Sigma) and monitored at 405 nm.
Solution Phase ELISA Assay Analysis of Oligomannose 1-8 Inhibition of 2G12 Binding. Man9GlcNAc2 1 and deprotected oligomannoses 2-6 and 7-9 (see FIG. 17) were evaluated for their ability to inhibit the interaction between 2G12 and gp120 in a solution phase enzyme-linked immunosorbent assay (ELISA). […]

T1 sequence (Q92183 whole entry): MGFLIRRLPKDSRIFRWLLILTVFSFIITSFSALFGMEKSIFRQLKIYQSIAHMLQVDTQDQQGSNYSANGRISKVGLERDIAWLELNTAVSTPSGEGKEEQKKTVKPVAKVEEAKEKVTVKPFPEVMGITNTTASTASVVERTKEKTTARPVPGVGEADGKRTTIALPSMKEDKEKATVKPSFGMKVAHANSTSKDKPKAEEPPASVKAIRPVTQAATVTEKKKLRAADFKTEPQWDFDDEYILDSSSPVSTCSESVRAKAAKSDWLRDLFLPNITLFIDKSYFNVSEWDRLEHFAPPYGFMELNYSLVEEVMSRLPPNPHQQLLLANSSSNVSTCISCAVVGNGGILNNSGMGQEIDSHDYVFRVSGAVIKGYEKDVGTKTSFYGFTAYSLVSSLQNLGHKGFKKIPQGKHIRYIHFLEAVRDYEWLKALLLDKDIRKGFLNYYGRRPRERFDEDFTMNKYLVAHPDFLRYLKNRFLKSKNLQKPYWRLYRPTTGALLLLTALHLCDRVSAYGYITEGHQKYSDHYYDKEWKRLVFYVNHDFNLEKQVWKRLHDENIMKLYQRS

Compound: OCC1O[C@@H](O)C(O)[C@@H](O)[C@@H]1O[C@@H]1OC(CO)[C@H](O)[C@H](O)C1O (some centres unmarked) [Compound 4]
- chST6GalNAc-I activity, cpm (chST6GalNAc-I): 3043 cpm
- chST6GalNAc-I activity, nmol/mg × min^−1 (chST6GalNAc-I): 2.90 nmol/mg × min^−1
- Rel. spec. (relative binding activity of 2G12) (2G12 anti-HIV antibody): − (− = <1000)

Compound: O=[N+]([O-])c1ccc(O[C@@H]2OC(CO)[C@@H](O[C@@H]3OC(CO)[C@H](O)[C@H](O)C3O)[C@H](O)C2O)cc1 (some centres unmarked) [Compound 5]
- chST6GalNAc-I activity, cpm (chST6GalNAc-I): 1421 cpm
- chST6GalNAc-I activity, nmol/mg × min^−1 (chST6GalNAc-I): 1.30 nmol/mg × min^−1
- Rel. spec. (relative binding activity of 2G12) (2G12 anti-HIV antibody): − (− = <1000)

Compound: CC(=O)N[C@H]1C(O)O[C@H](CO)[C@@H](O[C@@H]2O[C@H](CO)[C@H](O)[C@H](O)[C@H]2O)[C@@H]1O (some centres unmarked) [Compound 6]
- chST6GalNAc-I activity, cpm (chST6GalNAc-I): 13277 cpm
- chST6GalNAc-I activity, nmol/mg × min^−1 (chST6GalNAc-I): 12.50* nmol/mg × min^−1
- Rel. spec. (relative binding activity of 2G12) (2G12 anti-HIV antibody): − (− = <1000)

Compound: CC(=O)N[C@H]1C(O)O[C@H](CO)[C@H](O)[C@@H]1O (stereo partly drawn) [D-GalNAc, reference compound]
- chST6GalNAc-I activity, nmol/mg × min^−1 (chST6GalNAc-I): 0.00 nmol/mg × min^−1

Compound: NCCCCCO[C@H]1O[C@H](CO[C@H]2O[C@H](CO)[C@@H](O)[C@H](O)[C@@H]2O[C@H]2O[C@H](CO)[C@@H](O)[C@H](O)[C@@H]2O)[C@@H](O)[C@H](O[C@H]2O[C@H](CO)[C@@H](O)[C@H](O)[C@@H]2O[C@H]2O[C@H](CO)[C@@H](O)[C@H](O)[C@@H]2O)[C@@H]1O [Oligomannose 5]
- 2G12 binding affinity (2G12 antibody [1]): greatest affinity

Compound: Man-8#aa Man8-aminoacid [Glycan 144]
- 2G12 binding on glycan array (2G12 anti-HIV antibody): Binding was observed

Compound: Man-9#aa Man9-aminoacid [Glycan 145]
- 2G12 binding on glycan array (2G12 anti-HIV antibody): smaller level of binding

Compound: Manα1,2 Manα1,2Manα1,3Man
- Kd (2G12 antibody [2]; binding to 2G12, cleavable linker array): 100 nM
- 2G12 epitope / affinity (2G12 antibody [2]): optimal epitope(s) with micromolar affinity to 2G12

Compound: Manα1,2Manα1,3Manα1,2 Manα1,6Man
- 2G12 epitope / affinity (2G12 antibody [2]): optimal epitope(s) with micromolar affinity to 2G12

Compound: Oligomannose 3
- inhibition (%) of 2G12 binding to gp120 [3]: 15.8%
